Test results taken from BindingDB's records for doi:10.1016/j.ejmech.2018.08.092 (University of Lille, 2018).

Test: Inhibition of BACE1 in human SH-SY5Y cells harboring wild type APP695 assessed as reduction in amyloid beta (1 to 42) level after 24 hrs by ELISA method

| IC50 [µM] | SMILES |
| --- | --- |
| 2.8 | CN(C)Cc1ccccc1-c1ccc(NCCCN2CCCCC2)c(OCCC2CCCCC2)c1 |
| 3.6 | CN(C)Cc1ccccc1-c1ccc(NCCCN2CCCCC2)cc1 |
| 1.7 | CN(C)Cc1ccc(-c2ccc(NCCCN3CCCCC3)c(OCCN3CCCCC3)c2)cc1 |
| 1.6 | CN(C)Cc1ccccc1-c1ccc(NCCN2CCCCC2)c(OCCCCN2CCCCC2)c1 |
| 13.7 | c1ccc(-c2cccc(OCCN3CCCCC3)c2)cc1 |
| 6.5 | CN(C)Cc1ccn(-c2ccc(NCCCN3CCCCC3)c(OCCN3CCCCC3)c2)c1 |
| 3.4 | CN(C)Cc1ccccc1-c1ccc(NCCCN2CCCCC2)c(OCCN2CCCCC2)c1 |
| 1.2 | CN(C)Cc1ccccc1-c1cccc(OCCN2CCCCC2)c1 |
| 1.8 | CN(C)Cc1ccccc1-c1ccc(NCCN2CCCCC2)c(OCCCN2CCCCC2)c1 |
| 2.1 | CC(C)CN(CCCN1CCN(CCCNc2nc3ccccc3[nH]2)CC1)CC(C)C [(1H-Benzoimidazol-2-yl)-{3-[4-(3-diisobutylamino-propyl)-piperazin-1-yl]-propyl}-amine] |
| 1.2 | CN(C)Cc1ccccc1-c1ccc(NCCN2CCCCC2)c(OCCN2CCCCC2)c1 |
| 1.6 | CN(C)Cc1ccccc1-c1ccc(NCCCCN2CCCCC2)c(OCCN2CCCCC2)c1 |
| 4.1 | c1ccc(-c2ccc(NCCCN3CCCCC3)c(OCCN3CCCCC3)c2)c(CN2CCCCC2)c1 |
| 11.2 | Oc1c(CN2CCCC2)cc(Nc2ccnc3cc(Cl)ccc23)cc1CN1CCCC1 |
| 4 | c1ccc(-c2ccc(NCCCN3CCCCC3)c(OCCN3CCCCC3)c2)cc1 |
| 3.3 | c1cc(-c2ccc(NCCCN3CCCCC3)c(OCCN3CCCCC3)c2)ccc1CN1CCCCC1 |
| 4.2 | c1ccc(-c2ccc(NCCCN3CCCCC3)c(OCCN3CCCCC3)c2)c(CN2CCOCC2)c1 |
| 4.8 | c1cc(CN2CCCCC2)cc(-c2ccc(NCCCN3CCCCC3)c(OCCN3CCCCC3)c2)c1 |
